Test [1] has as its target T1, CepR (Burkholderia multivorans, UniProt Q93PF7).
T1 sequence (Q93PF7 1-239): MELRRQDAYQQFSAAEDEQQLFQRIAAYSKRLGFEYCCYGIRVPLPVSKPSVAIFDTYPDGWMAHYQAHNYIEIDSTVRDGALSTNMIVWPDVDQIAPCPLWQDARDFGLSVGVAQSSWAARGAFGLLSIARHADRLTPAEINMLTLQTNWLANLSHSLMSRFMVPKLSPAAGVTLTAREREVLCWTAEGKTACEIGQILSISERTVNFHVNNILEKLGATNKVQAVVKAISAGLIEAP
Nature of the test: CepR agonism in B. multivorans cepI::lacZ reporter (Bm-reporter). Format: cell-based. Particulars: for activation at 100 µM: read-out: Act%; for Emax: read-out: Maximal Activation (%). The text has this: We next sought to assess if the CepR modulators identified in the Ec-reporter maintained their activities in a member of the Bcc. For these studies, we generated a B. multivorans cepI::lacZ reporter organism (Bm-reporter) using standard allelic exchange methods (see Methods). Along with B. cenocepacia, B. multivorans is one of the most commonly isolated Bcc members[6],[44]. We note that small molecules must contend with a different cellular environment in the native organism relative to E. coli[48]; however, as both CepR and the cepI promoter are highly conserved among Bcc species (Fig. S3), we reasoned that the majority of compounds identified in the Ec-reporter (containing B. cenocepacia versions of the cepI promoter and the cepR gene) would maintain their relative activity profiles in CepR in B. multivorans. […] Similar to the Ec-reporter, CepR binding to the cepI promoter then induces β-galactosidase production, allowing for the quantitation of CepR activity. Using the Bm-reporter organism, we observed robust activity for CepR in response to C8-AHL (EC50 = 0.7 nM, Table 3).
The B. multivorans cepI::lacZ strain was used to obtain dose-response data for CepR in response to synthetic AHLs. Overnight cultures of B. multivorans cepI::lacZ were grown in LB medium at 37 °C with shaking (225 rpm). Aliquots (200 μL) of a 1:10 dilution of this overnight culture were plated into 96-well plates containing varying concentrations of compound, and then grown for 4 h at 37 °C with shaking (225 rpm). β-galactosidase production was measured as described above for E. coli, with the following changes: permeabilized cells were incubated at 25 °C with substrate CPRG for ~10 min until positive control wells developed a deep red color. For agonism assays, synthetic compound was screened alongside and compared to the native ligand, C8-AHL (100 μM). For antagonism assays, the concentration of native ligand utilized was 5 nM (approximately equal to twice its EC50 value).

The target of test [2] is T1, CepR. As to the kind of experiment: CepR antagonism in B. multivorans cepI::lacZ reporter (Bm-reporter), competition against C8-AHL. The test is classed as cell-based. The essentials: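 B. multivorans cepI::lacZ cells (1:10 dilution of overnight LB culture) grown 4 h at 37 °C with compound, then β-galactosidase read with CPRG on permeabilized cells at 25 °C for ~10 min. Agonism compared against 100 μM C8-AHL; antagonism run in the presence of 5 nM C8-AHL.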

A further test relates to LasR, RhlR, and QscR. Nature of the test: Comparison of activities in CepR vs. the three LuxR-type receptors in P. aeruginosa. Particulars: preliminary analyses; comparison with earlier data ref 22, 24, 59. The text has this: To close, the compounds identified herein constitute new chemical tools to study QS in Bcc species in a variety of contexts. Given the strong conservation of CepR between Bcc members, we hypothesize our compounds will maintain their activity profiles across Bcc member species and we can begin to use them to assess the role of CepI/CepR QS on a broader scale. […] A next step moving forward will be to gauge the selectivity of the ligands identified herein for CepR over other LuxR-type receptors. […] Such compounds could allow for the selective targeting of QS in one organism in a mixed culture over time and allow for insights into the potential for interspecies interactions via QS and their effects on host health outcomes. Ongoing studies are focused in this arena, along with further delineating the mechanisms by which our CepR ligands agonize and antagonize CepR, and will be reported in due course.

In test [3] the test system is B. multivorans ATCC17616. As to the kind of experiment: Swimming motility assay (0.3% agar). The test is classed as cell-based. The conditions noted are these: 50 μM compound, 72 h, untreated = 100%. How it is done: (§1) We were interested to assess the effects of our lead CepR modulators on a phenotype under the control of QS in B. multivorans. However, very little work has been reported to directly link CepR activity in B. multivorans to any QS-controlled phenotype. […] Therefore, we chose to study the effects of compound treatment on both the swarming and swimming motility of B. multivorans (B. multivorans ATCC17616; see Methods).
Figure 3 B. multivorans motility assay data. Swimming motility was measured by spotting B. multivorans plus compound indicated in the center of M9 + 0.1% casamino acids + 0.3% agar in a 10 cm diameter petri dish. Area of the colony after 72 h incubation was calculated using ImageJ, normalized to the B. multivorans wild-type + vehicle (DMSO), and listed above each plate shown. TEXT PRINTED IN THE PICTURE: C8-AHL: 182% | E32: 195% | E35: 175% | E37: 173% | DMSO: 100% | A12: 55% | B12: 53% | E3: 58%
The motility assay was based on a previously reported procedure. B. multivorans was grown overnight with 50 μM compound at 37 °C and normalized to OD600 = 0.4, and then cells were washed with sterile water and resuspended with 50 μM fresh compound. Cells (5 μL) were spotted in the center of M9 + 0.1% Casamino Acids + 0.3% agar plates (100 mm diameter). Cells were grown for 72 h at 37 °C. Images were analyzed using ImageJ to calculate the area of the colony and normalized to the area of B. multivorans wild-type + vehicle (DMSO).

The test system of test [4] is B. multivorans ATCC17616. Nature of the test: Swarming motility assay (0.5% agar). Format: cell-based. The conditions noted are these: 50 μM C8-AHL.
Source text: as §1
We then tested the ability of our non-native compounds to modulate swimming motility in B. multivorans.
Figure S4. Motility assays (A ) on 0.3% agar (i.e., to measure swimming) with th e B. multivorans parental and cepI::lacZ organisms, using +/- 50 μM C8-AHL and (B) on 0. 5 % ag a r (i.e . , t o measure swarming ) with the B. multivorans parental organism, using +/- 50 μ M C8-AHL. Se e main text for assay methods.
(1 picture or pasted object on this page, not shown here)

[5] abbreviates: Bm-reporter, against 5 nM C8-AHL.

Like-named read-outs stand apart in the source and are kept apart here.

The EC50 is the concentration needed to bring the measured effect to its halfway point. `CCCCCC(O)CC(=O)N[C@H]1CCOC1=O` (some centres unmarked) [3’OH-C8-AHL, reference compound]: on CepR [1] (Bm-reporter, agonism dose-response, read-out: EC50), the concentration for a half-maximal effect (EC50) is ≥ 980 nM. Also, the “Maximal Activation (%)” value at CepR [1] (Bm-reporter, activity for 100 μM C8-AHL set to 100%, error ±10%) stood at 78%. The Act% on CepR [1] (Table S4, Bm-reporter, screening conc. 100 μM) worked out at 78%.

A word on the IC50: it is the concentration needed to halve the response being measured. In the case of `CCCCCCCS(=O)(=O)N[C@H]1CCOC1=O` [Compound A12], the IC50 on CepR [2] is 1700 nM. For the same compound, on CepR [2] (setting [5]), the “Maximal Inhibition (%)” value stood at 82%. Further, in the test with LasR, RhlR, and QscR, the “Selectivity for CepR over LasR, RhlR, QscR” value (“Selectivity for CepR” below) was “selective for CepR”. The “Swimming motility, area of the colony normalized to B. multivorans wild-type + vehicle (DMSO)” value with B. multivorans ATCC17616 [3] came to 55%.

Compound `O=C(CC1CCCC1)N[C@H]1CCOC1=O` [Compound B12] gave an IC50 on CepR [2] of 2100 nM. Moreover, the “Maximal Inhibition (%)” value at CepR [2] (setting [5]) is 83%. For the same compound, in the test with B. multivorans ATCC17616 [3], the “Swimming motility, area of the colony normalized to B. multivorans wild-type + vehicle (DMSO)” value is 53%.

On to `CCCCCCCC(=O)N[C@H]1CCOC1=O` [Compound C8-AHL, N-octanoyl L-homoserine lactone, reference compound], for which, on CepR [1], the response was half-maximal at 0.7 nM (EC50), the activation at 100 µM stood at 100% and the Emax came out at 100%. Moreover, the “Swarming motility upon addition of compound” value in the test on B. multivorans ATCC17616 [4] was “not increased”. For the same compound, the “Swimming motility, area of the colony normalized to B. multivorans wild-type + vehicle (DMSO)” value in the test on B. multivorans ATCC17616 [3] was 182%.

Regarding `O=C(Cc1cccc(Br)c1)N[C@H]1CCOC1=O` [Compound C8], the “CepR antagonism in words” value at CepR [2] (Bm-reporter) is “bring reporter activity down to nearly zero”. In addition, the “Maximal Inhibition (%)” value on CepR [2] (setting [5]) is 94%. In addition, the IC50 on CepR [2] (Bm-reporter, against 5 nM C8-AHL, read-out: IC50) came out at 2600 nM.

On to `O=C(Cc1cccc(C(F)(F)F)c1)N[C@H]1CCOC1=O` [Compound E3], for which the IC50 at CepR [2] turned out to be 1900 nM. The “CepR antagonism in words” value on CepR [2] (Bm-reporter) is given as “bring reporter activity down to nearly zero”. Further, the “Maximal Inhibition (%)” value at CepR [2] (setting [5]) was found to be 100%. The activation at 100 µM on CepR [1] was determined as 3.1%. For the same compound, in the test with LasR, RhlR, and QscR, the “Selectivity for CepR” value was “selective for CepR”. Also, the “Swimming motility, area of the colony normalized to B. multivorans wild-type + vehicle (DMSO)” value in the test on B. multivorans ATCC17616 [3] came to 58%.

For the compound `O=C(CCc1ccc(I)cc1)N[C@H]1CCOC1=O` [Compound E32], at CepR [1], the EC50 came out at 0.08 nM, the activation at 100 µM turned out to be 110% and the Emax turned out to be 110%. The “Swimming motility, area of the colony normalized to B. multivorans wild-type + vehicle (DMSO)” value in the test on B. multivorans ATCC17616 [3] is listed as 195%.

Consider `O=C(CCc1ccc(C(F)(F)F)cc1)N[C@H]1CCOC1=O` [Compound E35], for which, at CepR [1], it took 0.022 nM to reach a half-maximal effect (EC50), the activation at 100 µM is 98% and the Emax is 98%. Further, the “Swimming motility, area of the colony normalized to B. multivorans wild-type + vehicle (DMSO)” value in the test with B. multivorans ATCC17616 [3] is reported as 175%.

Turning to `O=C(CCc1ccc([N+](=O)[O-])cc1)N[C@H]1CCOC1=O` [Compound E37], on CepR [1], the EC50 is 0.0025 nM, the activation at 100 µM turned out to be 91% and the Emax stood at 91%. Also, the “EC50 fold lower than C8-AHL” value on CepR [1] (Bm-reporter) was ~ 250 fold. For the same compound, the “Selectivity for CepR” value with LasR, RhlR, and QscR is reported as “selective for CepR”. For the same compound, in the test on B. multivorans ATCC17616 [3], the “Swimming motility, area of the colony normalized to B. multivorans wild-type + vehicle (DMSO)” value came to 173%.

The values are drawn from paper PMC6748986, “Potent modulation of the CepR quorum sensing receptor and virulence in a Burkholderia cepacia complex member using non-native lactone ligands” (Scientific Reports, 2019).
